How the values were obtained:
[1] = molecular target: T1, Testis-specific serine/threonine-protein kinase 1 (Homo sapiens) (UniProt Q9BXA7); experiment: Inhibition of TSSK1B (unknown origin) assessed as residual activity at 1000 nM by KINOMEscan analysis relative to control
T1 sequence (whole entry): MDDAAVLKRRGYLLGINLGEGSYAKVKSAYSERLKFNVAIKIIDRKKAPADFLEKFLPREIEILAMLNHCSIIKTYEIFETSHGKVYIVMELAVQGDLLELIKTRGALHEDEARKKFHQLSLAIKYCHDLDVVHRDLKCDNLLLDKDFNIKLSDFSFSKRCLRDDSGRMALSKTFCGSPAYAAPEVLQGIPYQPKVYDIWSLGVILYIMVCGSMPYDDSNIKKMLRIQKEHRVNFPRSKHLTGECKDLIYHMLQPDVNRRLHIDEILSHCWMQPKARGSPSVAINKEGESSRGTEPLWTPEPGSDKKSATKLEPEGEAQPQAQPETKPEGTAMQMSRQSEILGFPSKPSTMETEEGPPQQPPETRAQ

[2] = molecular target: Non-receptor tyrosine-protein kinase TYK2 (Homo sapiens) (UniProt P29597); experiment: Inhibition of TYK2 JH1 catalytic domain (unknown origin) assessed as residual activity at 1000 nM by KINOMEscan analysis relative to control
[3] = molecular target: T2, Aurora kinase A (Homo sapiens) (UniProt O14965); experiment: Inhibition of AURKA (unknown origin) assessed as residual activity at 1000 nM by KINOMEscan analysis relative to control
T2 sequence (whole entry): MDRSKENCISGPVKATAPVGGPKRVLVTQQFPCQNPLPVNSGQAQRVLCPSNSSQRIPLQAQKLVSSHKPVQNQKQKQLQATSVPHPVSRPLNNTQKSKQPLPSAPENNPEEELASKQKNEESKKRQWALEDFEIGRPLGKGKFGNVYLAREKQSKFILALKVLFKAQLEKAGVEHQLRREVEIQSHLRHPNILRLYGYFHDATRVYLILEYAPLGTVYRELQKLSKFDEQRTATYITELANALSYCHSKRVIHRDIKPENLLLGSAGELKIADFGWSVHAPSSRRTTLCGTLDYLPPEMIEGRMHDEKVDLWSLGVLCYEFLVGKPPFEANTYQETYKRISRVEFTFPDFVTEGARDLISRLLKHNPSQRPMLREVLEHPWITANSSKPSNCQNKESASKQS

[4] = molecular target: Serine/threonine-protein kinase Nek4 (Homo sapiens) (UniProt P51957); experiment: Inhibition of NEK4 (unknown origin) assessed as residual activity at 1000 nM by KINOMEscan analysis relative to control
[5] = molecular target: Non-receptor tyrosine-protein kinase TYK2 (Homo sapiens) (UniProt P29597); experiment: Inhibition of TYK2 JH2 pseudokinase domain (unknown origin) assessed as residual activity at 1000 nM by KINOMEscan analysis relative to control
[6] = molecular target: T3, Inhibitor of nuclear factor kappa-B kinase subunit beta (Homo sapiens) (UniProt O14920); experiment: Inhibition of IKK-beta (unknown origin) assessed as residual activity at 1000 nM by KINOMEscan analysis relative to control
T3 sequence (whole entry): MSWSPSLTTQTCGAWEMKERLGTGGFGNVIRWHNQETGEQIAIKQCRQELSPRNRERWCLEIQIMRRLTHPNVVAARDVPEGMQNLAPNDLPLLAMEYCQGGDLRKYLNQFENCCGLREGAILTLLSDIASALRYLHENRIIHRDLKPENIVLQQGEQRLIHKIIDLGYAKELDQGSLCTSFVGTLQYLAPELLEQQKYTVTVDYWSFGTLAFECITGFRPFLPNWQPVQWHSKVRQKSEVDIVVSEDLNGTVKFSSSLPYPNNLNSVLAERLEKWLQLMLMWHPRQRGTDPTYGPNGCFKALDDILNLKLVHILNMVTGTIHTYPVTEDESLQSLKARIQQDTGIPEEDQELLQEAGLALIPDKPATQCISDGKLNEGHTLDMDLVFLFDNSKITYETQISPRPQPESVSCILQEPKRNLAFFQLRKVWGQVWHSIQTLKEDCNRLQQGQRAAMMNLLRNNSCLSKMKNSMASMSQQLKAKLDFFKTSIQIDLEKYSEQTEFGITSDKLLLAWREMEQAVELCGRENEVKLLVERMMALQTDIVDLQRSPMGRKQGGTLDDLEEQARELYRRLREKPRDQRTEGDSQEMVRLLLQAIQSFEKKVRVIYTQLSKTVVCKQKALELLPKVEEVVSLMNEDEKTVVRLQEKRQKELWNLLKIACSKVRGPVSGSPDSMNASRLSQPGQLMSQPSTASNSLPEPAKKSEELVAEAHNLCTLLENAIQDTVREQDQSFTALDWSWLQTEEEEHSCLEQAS

[7] = molecular target: 5'-AMP-activated protein kinase catalytic subunit alpha-2 (Homo sapiens) (UniProt P54646); experiment: Inhibition of AMPK-alpha2 (unknown origin) assessed as residual activity at 1000 nM by KINOMEscan analysis relative to control
[8] = molecular target: Serine/threonine-protein kinase N1 (Homo sapiens) (UniProt Q16512); experiment: Inhibition of PKN1 (unknown origin) assessed as residual activity at 1000 nM by KINOMEscan analysis relative to control
[9] = molecular target: Tyrosine-protein kinase SYK (Homo sapiens) (UniProt P43405); experiment: Inhibition of SYK (unknown origin) assessed as residual activity at 1000 nM by KINOMEscan analysis relative to control
[10] = molecular target: Serine/threonine-protein kinase MAK (Homo sapiens) (UniProt P20794); experiment: Inhibition of MAK (unknown origin) assessed as residual activity at 1000 nM by KINOMEscan analysis relative to control
[11] = molecular target: TGF-beta receptor type-2 (Homo sapiens) (UniProt P37173); experiment: Inhibition of TGFBR2 (unknown origin) assessed as residual activity at 1000 nM by KINOMEscan analysis relative to control
Sequence of TGF-beta receptor type-2 (Homo sapiens) (P37173 whole entry): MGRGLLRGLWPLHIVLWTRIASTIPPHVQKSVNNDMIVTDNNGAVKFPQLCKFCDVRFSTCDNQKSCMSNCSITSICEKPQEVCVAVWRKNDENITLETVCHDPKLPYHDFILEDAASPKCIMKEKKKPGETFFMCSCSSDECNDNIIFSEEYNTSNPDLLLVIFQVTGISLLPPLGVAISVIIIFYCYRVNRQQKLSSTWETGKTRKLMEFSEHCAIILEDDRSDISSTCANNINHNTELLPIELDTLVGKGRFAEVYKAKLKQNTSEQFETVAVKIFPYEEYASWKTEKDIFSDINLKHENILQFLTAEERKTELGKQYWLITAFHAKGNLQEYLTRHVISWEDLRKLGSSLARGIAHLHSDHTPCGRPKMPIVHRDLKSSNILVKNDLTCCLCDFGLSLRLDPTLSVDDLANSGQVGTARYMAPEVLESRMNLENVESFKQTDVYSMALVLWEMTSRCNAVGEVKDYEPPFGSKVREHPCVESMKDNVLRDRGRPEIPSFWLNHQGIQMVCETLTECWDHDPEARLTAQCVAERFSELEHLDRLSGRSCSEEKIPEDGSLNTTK

Sequence of Non-receptor tyrosine-protein kinase TYK2 (Homo sapiens) (P29597 whole entry, the tested form may be a part): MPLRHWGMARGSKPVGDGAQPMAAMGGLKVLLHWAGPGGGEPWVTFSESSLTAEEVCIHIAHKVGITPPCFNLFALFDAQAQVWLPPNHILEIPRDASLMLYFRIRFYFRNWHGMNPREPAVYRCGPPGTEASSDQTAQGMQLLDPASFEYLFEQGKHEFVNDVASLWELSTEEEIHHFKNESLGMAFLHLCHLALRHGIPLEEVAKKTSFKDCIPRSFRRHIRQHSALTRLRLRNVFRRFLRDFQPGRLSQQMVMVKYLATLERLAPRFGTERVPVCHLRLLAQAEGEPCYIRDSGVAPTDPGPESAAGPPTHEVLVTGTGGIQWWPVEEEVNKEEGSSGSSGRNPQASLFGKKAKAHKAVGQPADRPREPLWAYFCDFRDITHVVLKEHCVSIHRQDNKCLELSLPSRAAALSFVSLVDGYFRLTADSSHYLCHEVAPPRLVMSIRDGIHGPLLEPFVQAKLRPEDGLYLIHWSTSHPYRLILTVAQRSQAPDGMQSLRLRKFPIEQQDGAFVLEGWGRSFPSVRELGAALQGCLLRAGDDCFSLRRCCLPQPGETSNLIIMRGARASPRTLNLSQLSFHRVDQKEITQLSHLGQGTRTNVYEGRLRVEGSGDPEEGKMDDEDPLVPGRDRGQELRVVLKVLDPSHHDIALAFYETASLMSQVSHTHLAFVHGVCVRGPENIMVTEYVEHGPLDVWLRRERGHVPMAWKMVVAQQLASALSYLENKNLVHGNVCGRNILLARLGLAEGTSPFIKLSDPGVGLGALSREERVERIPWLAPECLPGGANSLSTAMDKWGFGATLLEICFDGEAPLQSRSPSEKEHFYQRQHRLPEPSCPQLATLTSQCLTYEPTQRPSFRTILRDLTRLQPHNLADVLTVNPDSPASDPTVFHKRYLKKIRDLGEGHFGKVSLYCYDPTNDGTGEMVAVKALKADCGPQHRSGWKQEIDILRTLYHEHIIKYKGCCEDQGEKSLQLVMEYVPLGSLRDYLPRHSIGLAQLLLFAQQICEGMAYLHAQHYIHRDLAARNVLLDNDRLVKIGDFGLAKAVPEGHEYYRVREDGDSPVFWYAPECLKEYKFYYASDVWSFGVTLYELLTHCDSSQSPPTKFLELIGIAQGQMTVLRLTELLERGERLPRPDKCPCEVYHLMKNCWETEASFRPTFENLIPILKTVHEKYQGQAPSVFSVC
Sequence of Serine/threonine-protein kinase N1 (Homo sapiens) (Q16512 2-942 limits assumed): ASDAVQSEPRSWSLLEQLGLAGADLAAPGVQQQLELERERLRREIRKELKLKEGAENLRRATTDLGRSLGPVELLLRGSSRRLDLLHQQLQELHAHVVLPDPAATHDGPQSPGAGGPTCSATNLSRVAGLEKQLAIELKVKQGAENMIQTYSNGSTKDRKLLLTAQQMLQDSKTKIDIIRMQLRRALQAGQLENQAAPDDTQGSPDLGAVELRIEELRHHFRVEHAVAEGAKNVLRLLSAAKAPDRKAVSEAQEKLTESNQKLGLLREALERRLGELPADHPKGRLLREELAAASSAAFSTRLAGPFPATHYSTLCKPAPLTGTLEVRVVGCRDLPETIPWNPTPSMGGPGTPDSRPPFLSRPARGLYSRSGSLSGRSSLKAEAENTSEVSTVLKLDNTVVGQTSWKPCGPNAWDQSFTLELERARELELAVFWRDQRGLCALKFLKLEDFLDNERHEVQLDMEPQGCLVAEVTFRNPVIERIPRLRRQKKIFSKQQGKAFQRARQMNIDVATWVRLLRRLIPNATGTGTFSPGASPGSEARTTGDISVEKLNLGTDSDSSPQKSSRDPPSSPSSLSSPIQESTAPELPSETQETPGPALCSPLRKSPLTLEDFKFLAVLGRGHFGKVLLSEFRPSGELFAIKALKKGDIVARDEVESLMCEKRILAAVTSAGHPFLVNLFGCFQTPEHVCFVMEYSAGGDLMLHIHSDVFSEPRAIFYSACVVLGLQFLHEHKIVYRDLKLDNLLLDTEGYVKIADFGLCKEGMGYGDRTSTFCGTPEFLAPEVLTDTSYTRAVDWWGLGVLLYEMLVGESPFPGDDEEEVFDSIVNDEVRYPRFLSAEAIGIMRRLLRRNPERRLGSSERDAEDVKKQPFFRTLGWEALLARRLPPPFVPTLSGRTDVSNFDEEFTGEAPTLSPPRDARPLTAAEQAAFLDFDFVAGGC
Sequence of 5'-AMP-activated protein kinase catalytic subunit alpha-2 (Homo sapiens) (P54646 whole entry, looked up): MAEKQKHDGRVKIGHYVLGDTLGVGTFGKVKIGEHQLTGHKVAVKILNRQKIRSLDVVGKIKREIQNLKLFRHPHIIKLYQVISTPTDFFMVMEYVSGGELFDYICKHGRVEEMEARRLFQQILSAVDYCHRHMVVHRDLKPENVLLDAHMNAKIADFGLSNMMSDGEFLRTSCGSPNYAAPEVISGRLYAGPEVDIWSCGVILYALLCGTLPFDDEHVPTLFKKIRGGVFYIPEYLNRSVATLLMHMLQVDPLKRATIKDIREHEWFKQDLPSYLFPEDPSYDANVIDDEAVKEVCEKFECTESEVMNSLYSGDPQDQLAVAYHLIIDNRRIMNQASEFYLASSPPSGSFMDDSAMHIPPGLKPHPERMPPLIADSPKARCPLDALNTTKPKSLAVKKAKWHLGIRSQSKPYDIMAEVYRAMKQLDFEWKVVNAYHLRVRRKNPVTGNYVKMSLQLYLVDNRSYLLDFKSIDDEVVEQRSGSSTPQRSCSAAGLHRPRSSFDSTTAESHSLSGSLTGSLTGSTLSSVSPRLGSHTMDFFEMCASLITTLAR
Sequence of Serine/threonine-protein kinase MAK (Homo sapiens) (P20794 whole entry, looked up): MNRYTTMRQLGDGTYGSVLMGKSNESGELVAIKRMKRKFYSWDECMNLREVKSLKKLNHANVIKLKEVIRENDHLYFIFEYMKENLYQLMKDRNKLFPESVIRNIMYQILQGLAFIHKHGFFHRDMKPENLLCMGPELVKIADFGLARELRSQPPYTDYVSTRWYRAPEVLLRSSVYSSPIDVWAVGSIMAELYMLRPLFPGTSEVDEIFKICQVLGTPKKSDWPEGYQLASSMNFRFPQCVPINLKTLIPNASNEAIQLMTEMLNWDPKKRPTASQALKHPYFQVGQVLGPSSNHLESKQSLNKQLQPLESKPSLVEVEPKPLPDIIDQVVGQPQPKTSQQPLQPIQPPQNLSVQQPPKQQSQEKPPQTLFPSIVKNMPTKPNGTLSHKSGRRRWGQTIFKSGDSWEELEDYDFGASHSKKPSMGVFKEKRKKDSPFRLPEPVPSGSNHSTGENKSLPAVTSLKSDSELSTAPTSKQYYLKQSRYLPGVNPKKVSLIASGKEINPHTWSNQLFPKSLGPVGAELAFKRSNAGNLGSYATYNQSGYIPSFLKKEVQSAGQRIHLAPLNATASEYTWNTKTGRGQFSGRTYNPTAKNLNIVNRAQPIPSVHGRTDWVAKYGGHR
Sequence of Serine/threonine-protein kinase Nek4 (Homo sapiens) (P51957 whole entry, looked up, the tested form may be a part): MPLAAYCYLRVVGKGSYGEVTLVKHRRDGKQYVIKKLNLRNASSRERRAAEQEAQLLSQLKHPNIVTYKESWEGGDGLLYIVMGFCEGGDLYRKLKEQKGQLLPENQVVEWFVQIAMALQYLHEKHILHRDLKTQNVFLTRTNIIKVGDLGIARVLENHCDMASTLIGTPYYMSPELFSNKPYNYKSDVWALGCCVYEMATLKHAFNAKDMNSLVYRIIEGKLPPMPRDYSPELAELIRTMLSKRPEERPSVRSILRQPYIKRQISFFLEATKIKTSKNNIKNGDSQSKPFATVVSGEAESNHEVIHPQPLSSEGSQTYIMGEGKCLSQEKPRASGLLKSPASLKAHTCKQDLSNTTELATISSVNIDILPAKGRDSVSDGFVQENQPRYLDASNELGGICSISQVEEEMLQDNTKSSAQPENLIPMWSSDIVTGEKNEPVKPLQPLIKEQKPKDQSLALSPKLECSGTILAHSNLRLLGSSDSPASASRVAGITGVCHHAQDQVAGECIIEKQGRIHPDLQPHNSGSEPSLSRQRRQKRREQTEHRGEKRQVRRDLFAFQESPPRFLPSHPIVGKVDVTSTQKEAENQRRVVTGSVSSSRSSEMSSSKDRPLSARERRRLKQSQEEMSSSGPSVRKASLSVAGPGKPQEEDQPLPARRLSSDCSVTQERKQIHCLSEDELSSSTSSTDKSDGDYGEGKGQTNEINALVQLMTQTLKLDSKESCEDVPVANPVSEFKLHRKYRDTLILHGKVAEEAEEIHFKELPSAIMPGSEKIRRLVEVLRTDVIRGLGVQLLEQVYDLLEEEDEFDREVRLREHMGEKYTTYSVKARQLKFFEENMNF

Compound	Activity [1] [%]	Activity [2] [%]	Activity [3] [%]	Activity [4] [%]	Activity [5] [%]	Activity [6] [%]	Activity [7] [%]	Activity [8] [%]	Activity [9] [%]	Activity [10] [%]	Activity [11] [%]
COc1cc2nc(C)nc(N[C@H](C)c3cccc(-c4cn[nH]c4)c3)c2cc1OC	98	77	89	81	80	73	81	100	76	80	93
COc1cc2ncnc(N[C@H](C)c3cccc4ccccc34)c2cc1OC	100	82	91	90	100	82	98	97	100	100	100

Source: ChEMBL document CHEMBL5678818, “Discovery of potent SOS1 inhibitors that block RAS activation via disruption of the RAS-SOS1 interaction” (Proc Natl Acad Sci U S A, 2019)
